{"source": "patent US6218380A", "about": "“Pharmaceutical compositions” (SmithKline Beecham p.l.c., priority 1991, dated 2001)", "key": {"[1]": {"system": "Staphylococcus aureus (Russell)", "test": "M.I.C. with clavulanic acid methyl ester (Example 32)", "type": "cell-based"}, "Proteus mirabilis C889": {"system": "Proteus mirabilis C889", "test": "M.I.C. with clavulanic acid methyl ester (Example 32)", "type": "cell-based"}, "[2]": {"system": "Klebsiella aerogenes E 70", "test": "Antibacterial synergism, microtitre MIC (Example 42)", "type": "cell-based", "conditions": "method of Example 42; unit not given"}, "Klebsiella aerogenes 62": {"system": "Klebsiella aerogenes 62", "test": "Antibacterial synergism, microtitre MIC (Example 42)", "type": "cell-based", "conditions": "method of Example 42; unit not given"}, "Klebsiella aerogenes A": {"system": "Klebsiella aerogenes A", "test": "Antibacterial synergism, microtitre MIC (Example 42)", "type": "cell-based", "conditions": "method of Example 42; unit not given"}, "[3]": {"system": "strains of Klebsiella aerogenes A", "test": "Growth inhibition, penicillins with synergist (description)", "type": "cell-based"}, "Staphylococcus aureus": {"system": "Staphylococcus aureus", "test": "Antibacterial synergism, microtitre MIC (Example 42)", "type": "cell-based", "conditions": "method of Example 42"}, "[4]": {"test": "Hydrolysis of ester to clavulanic acid in pH 7 buffer", "type": "physicochemical", "conditions": "water buffered to pH7", "procedure": "The reaction was followed by paper chromatography (bioautographic system). Using the butanol/ethanol/water system to follow the reaction over a period of 2 hours the zone of the methyl ester of Rf 0.79 decreased in size as the zone of clavulanic acid at Rf 0.12 increased."}, "[5]": {"test": "Blood and tissue levels in female mice", "type": "in vivo", "conditions": "oral administration of 100 mg/kg of the sodium salt"}, "[6]": {"system": "β-lactamase producing strains of Proteus mirabilis and Staphylococcus aureus", "test": "Synergism with cephaloridine (properties of clavulanic acid)", "type": "cell-based"}, "[7]": {"system": "β-lactamase producing strains of Escherichia coli, Klebsiella aerogenes and Staphylococcus aureus", "test": "Synergism with ampicillin (properties of clavulanic acid)", "type": "cell-based"}, "[8]": {"system": "strains of Staphylococcus aureus", "test": "Growth inhibition (properties of clavulanic acid)", "type": "cell-based"}}, "note": "Counter-ions that a name gives are not always drawn."}
{"smiles": "CC1(C)S[C@@H]2[C@H](NC(=O)[C@H](N)c3ccccc3)C(=O)N2[C@H]1C(=O)O", "note": "[Ampicillin, ampicillin]", "values": [{"measurement": "M.I.C. of antibiotic in the presence of 1.0 μg/ml. clavulanic acid methyl ester", "setting": "[1]", "value": "< 0.4", "unit": "µg/mL"}, {"measurement": "M.I.C. for ampicillin in the presence of 5 μg/ml. clavulanic acid methyl ester", "setting": "Proteus mirabilis C889", "value": 31, "unit": "µg/mL"}, {"measurement": "MIC of Ampicillin + 5 μg/ml of Benzyl Ester of clavulanic acid", "setting": "[2]", "value": 3.9}, {"measurement": "MIC of Ampicillin + 5 μg/ml of Methyl Ester of clavulanic acid", "setting": "[2]", "value": 3.9}, {"measurement": "MIC of Ampicillin + 5 μg/ml of Benzyl Ester of clavulanic acid", "setting": "Klebsiella aerogenes 62", "value": 3.9}, {"measurement": "MIC of Ampicillin + 5 μg/ml of Methyl Ester of clavulanic acid", "setting": "Klebsiella aerogenes 62", "value": 3.9}, {"measurement": "MIC of Ampicillin + 5 μg/ml of Benzyl Ester of clavulanic acid", "setting": "Klebsiella aerogenes A", "value": 1.9}, {"measurement": "MIC of Ampicillin + 5 μg/ml of Methyl Ester of clavulanic acid", "setting": "Klebsiella aerogenes A", "value": 1.9}]}
{"smiles": "CC1(C)S[C@@H]2[C@H](NC(=O)Cc3ccccc3)C(=O)N2[C@H]1C(=O)O", "note": "[Benzylpenicillin, benzylpenicillin]", "values": [{"measurement": "Concentration of penicillin that inhibits growth when 5 μg/ml. of clavulanic acid is also present", "setting": "[3]", "value": "less than 12.5 μg/ml"}]}
{"smiles": "O=C(Cc1cccs1)N[C@@H]1C(=O)N2C(C(=O)[O-])=C(C[n+]3ccccc3)CS[C@H]12", "note": "[Cephaloridine, cephaloridine]", "values": [{"measurement": "Minimum Inhibitory Concentrations, cephaloridine in presence of 5 μg/ml clavulanic acid sodium salt", "setting": "Staphylococcus aureus", "value": 3.7, "unit": "µg/mL"}]}
{"smiles": "COC(=O)[C@H]1/C(=C/CO)O[C@@H]2CC(=O)N21", "note": "[clavulanic acid methyl ester]", "values": [{"measurement": "Hydrolysis to clavulanic acid", "setting": "[4]", "value": "slowly hydrolyse to clavulanic acid"}]}
{"smiles": "O=C(O)[C@H]1/C(=C/CO)O[C@@H]2CC(=O)N21", "note": "[clavulanic acid sodium salt, 3-(β-hydroxyethylidine)-7-oxo-4-oxa-1-azabicyclo[3,2,0]heptane-2-carboxylic acid sodium salt]", "values": [{"measurement": "Levels of clavulanic acid", "setting": "[5]", "value": "useful levels"}]}
{"smiles": "O=C(O)[C@H]1/C(=C/CO)O[C@@H]2CC(=O)N21", "note": "[clavulanic acid, Z-(2R,5R)-3-(β-hydroxyethylidene)-7-oxo-4-oxa-1-azabicyclo[3,2,0]heptane-2-carboxylic acid]", "values": [{"measurement": "Synergism of the antibacterial effect of cephaloridine", "setting": "[6]", "value": "able to synergise the antibacterial effect of cephaloridine"}, {"measurement": "Synergism of the antibacterial effect of ampicillin", "setting": "[7]", "value": "able to synergise the antibacterial effect of ampicillin"}, {"measurement": "Inhibition of growth of strains of Staphylococcus aureus", "setting": "[8]", "value": "able to inhibit the growth"}]}
